Experimental data from patent US20240092761A1, “QUINAZOLINE COMPOUNDS AND METHODS OF USE” (IAMBIC THERAPEUTICS, INC., priority 2022, published 2024).
Where two headings read alike, the source gives them in different places.

Assays:
CDK4/Cyclin D1 = CDK4/Cyclin D1 (Homo sapiens (Human), UniProt P11802); experiment: CDK4/Cyclin D1 Mobility Shift Assay (MSA); assay type: biochemical; details: 0.2 mM ATP, read-out: CDK4/ CyclinD1 MSA IC50
From the text: CDK4/Cyclin D1 Mobility Shift Assay (MSA)
The purpose CDK4/Cyclin D1 assay is to evaluate the inhibition (% inhibition and IC50 values) in the presence of small molecule inhibitors by using a fluorescence based microfluidic mobility shift assay. CDK4/Cyclin D1 catalyzes the production of ADP from ATP that accompanies the phosphoryl transfer to the substrate peptide 5-FAM-Dyrktide (5-FAM-RRRFRPASPLRGPPK) (Perkin Elmer Peptide 34). The mobility shift assay (MSA) electrophoretically separates the fluorescently labelled peptides (substrate and phosphorylated product) following the kinase reaction. Both substrate and product are measured, and the ratio of these values is used to generate % conversion of substrate to product by the LabChip EZ Reader. Typical reaction solutions contained 2% DMSO (+/−inhibitor), 10 mM MgCl2, 1 mM EGTA, 0.05% BSA, 2 mM DTT, 0.2 mM ATP, 0.01% Brig-35, 1.5 uM 5-FAM-Dyrktide, 2.5 nM CDK4/Cyclin D1 in 50 mM HEPES buffer at pH 7.5. The reaction was initiated with the addition of substrate solution, following a 30-minute pre-incubation of enzyme and inhibitor at 22° C. in the reaction mix. The reaction was stopped after 180 minutes by the addition of 75 uL of 500 mM EDTA and measured on a Perkin Elmer EZ reader instrument. IC50 determinations were made from a plot of the fractional velocity as a function of inhibitor concentration fit to the 4 parameters IC50 equation.

MCF-7 cells = experiment: Cell Growth Inhibition, MCF-7 (CellTiterGlo, 6 days); assay type: cell-based; details: Homo sapiens, MCF7, 144 h; MCF-7, 6-day treatment, CellTiterGlo 2.0
Summary of the method: (§1)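 Compounds were run in half-log series, usually 10–10,000 nM, with 500 cells/well of OVCAR-3 or MCF-7 in RPMI plus 10% FBS. After a 6-day culture at 37 °C, viability was read by CellTiterGlo luminescence. Inhibition relative to control was fitted (four-parameter, variable slope) for IC50.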

[1] = target: CDK2/Cyclin E1 full length (Homo sapiens (Human), UniProt P24941); experiment: CDK2/Cyclin E1 Full Length ADP-Glo Kinase Assay; assay type: biochemical; details: 20 uM ATP, read-out: CDK2/ CyclinE1 IC50
Summary of the method: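 ADP-Glo luminescence read-out of ADP formed by 0.328 nM wild-type full-length CDK2/Cyclin E1, 90 min at room temperature with 0.75 uM substrate and 20 uM ATP (Km 64.78 uM), after 30 min enzyme–inhibitor pre-incubation; 50 mM HEPES pH 7.5, 2% DMSO. Four-parameter IC50 fit.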

CDK6/Cyclin D3 = CDK6/Cyclin D3 (Homo sapiens (Human), UniProt Q00534); experiment: CDK6/Cyclin D3 ADP-Glo Kinase Assay; assay type: biochemical; details: 100 uM ATP, read-out: CDK6/ CyclinD3 IC50
CDK6/Cyclin D3, sequence (Q00534 whole entry): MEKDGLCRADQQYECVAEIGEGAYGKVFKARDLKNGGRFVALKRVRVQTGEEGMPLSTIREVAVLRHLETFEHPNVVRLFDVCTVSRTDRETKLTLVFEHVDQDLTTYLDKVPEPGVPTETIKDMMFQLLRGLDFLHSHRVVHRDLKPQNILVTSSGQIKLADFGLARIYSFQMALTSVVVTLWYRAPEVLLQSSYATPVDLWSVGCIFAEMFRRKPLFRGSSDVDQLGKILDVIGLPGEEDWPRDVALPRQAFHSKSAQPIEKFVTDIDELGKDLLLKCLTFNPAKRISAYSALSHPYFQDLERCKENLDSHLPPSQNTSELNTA
CDK6/Cyclin D3, sequence (P30281 whole entry partner): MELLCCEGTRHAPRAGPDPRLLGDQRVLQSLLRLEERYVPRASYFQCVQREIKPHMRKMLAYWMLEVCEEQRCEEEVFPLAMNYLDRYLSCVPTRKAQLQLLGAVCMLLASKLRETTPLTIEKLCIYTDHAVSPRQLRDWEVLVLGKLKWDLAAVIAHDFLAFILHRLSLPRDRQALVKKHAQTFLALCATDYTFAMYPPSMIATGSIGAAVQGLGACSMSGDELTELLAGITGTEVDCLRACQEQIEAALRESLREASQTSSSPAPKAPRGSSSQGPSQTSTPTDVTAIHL
Summary of the method: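 Luminescent ADP-Glo read-out of ADP produced, used to fit IC50 (4-parameter equation on fractional velocity against inhibitor concentration). Kinase reaction: enzyme and inhibitor together 30 min, then ATP-containing substrate added for 90 min, all at room temperature.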

CDK1/Cyclin B1 = CDK1/Cyclin B1 (Homo sapiens (Human), UniProt P06493); experiment: CDK1/Cyclin B1 ADP-Glo Kinase Assay; assay type: biochemical; details: 80 uM ATP
CDK1/Cyclin B1, sequence (P06493 whole entry): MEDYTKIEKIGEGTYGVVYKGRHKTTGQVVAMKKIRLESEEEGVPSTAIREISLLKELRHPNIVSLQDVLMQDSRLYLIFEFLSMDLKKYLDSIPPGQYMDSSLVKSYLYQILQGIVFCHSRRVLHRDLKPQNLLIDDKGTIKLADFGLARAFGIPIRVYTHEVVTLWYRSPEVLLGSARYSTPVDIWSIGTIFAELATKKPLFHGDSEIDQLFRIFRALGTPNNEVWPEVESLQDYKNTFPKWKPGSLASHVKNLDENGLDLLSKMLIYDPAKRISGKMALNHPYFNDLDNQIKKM
CDK1/Cyclin B1, sequence (P14635 whole entry partner): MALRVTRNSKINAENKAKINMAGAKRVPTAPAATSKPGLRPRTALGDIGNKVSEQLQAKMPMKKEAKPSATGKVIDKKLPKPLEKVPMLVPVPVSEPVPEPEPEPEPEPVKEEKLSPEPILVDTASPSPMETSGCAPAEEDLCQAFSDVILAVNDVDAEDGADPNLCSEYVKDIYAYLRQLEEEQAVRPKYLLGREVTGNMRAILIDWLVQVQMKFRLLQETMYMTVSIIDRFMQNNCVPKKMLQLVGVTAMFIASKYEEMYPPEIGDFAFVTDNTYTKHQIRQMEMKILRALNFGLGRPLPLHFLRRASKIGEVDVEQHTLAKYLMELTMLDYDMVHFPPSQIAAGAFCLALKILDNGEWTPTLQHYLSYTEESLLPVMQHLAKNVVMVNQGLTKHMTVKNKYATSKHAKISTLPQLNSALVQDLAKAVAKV
Summary of the method: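 Luminescent ADP-Glo detection of ADP produced over 90 min at room temperature. Enzyme complex 4.917 nM, pre-exposed 30 min to inhibitor; ATP 80 µM (near Km 78.6 µM), substrate 0.75 µM, HEPES pH 7.5, 2% DMSO. Fractional velocity fitted to 4-parameter IC50 equation.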

OVCAR-3 cells = experiment: Cell Growth Inhibition, OVCAR-3 (CellTiterGlo, 6 days); assay type: cell-based; details: Homo sapiens, 144 h; OVCAR-3, 6-day treatment, CellTiterGlo 2.0
Summary of the method: as §1

CDK4/Cyclin D1, sequence (P11802 whole entry): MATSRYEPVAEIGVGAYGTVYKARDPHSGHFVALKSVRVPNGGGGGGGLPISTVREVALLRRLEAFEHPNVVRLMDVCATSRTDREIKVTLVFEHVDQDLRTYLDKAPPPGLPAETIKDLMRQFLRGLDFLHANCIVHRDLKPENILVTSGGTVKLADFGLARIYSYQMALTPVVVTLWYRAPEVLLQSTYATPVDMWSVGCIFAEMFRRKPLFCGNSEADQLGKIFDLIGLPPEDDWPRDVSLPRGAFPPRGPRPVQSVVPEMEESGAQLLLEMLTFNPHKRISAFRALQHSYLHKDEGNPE
CDK4/Cyclin D1, sequence (P24385 whole entry partner): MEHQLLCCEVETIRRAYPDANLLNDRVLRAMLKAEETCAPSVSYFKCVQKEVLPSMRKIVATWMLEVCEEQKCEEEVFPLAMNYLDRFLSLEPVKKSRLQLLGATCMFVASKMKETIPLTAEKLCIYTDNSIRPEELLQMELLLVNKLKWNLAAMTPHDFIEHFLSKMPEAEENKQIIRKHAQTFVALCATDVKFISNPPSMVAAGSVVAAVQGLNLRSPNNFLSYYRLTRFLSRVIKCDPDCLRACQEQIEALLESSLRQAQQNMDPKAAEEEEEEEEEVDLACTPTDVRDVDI

SMILES	IC50 (CDK4/Cyclin D1) [nM]	IC50 (MCF-7 cells) [nM]	IC50 [1] [nM]	IC50 (CDK6/Cyclin D3) [nM]	IC50 (CDK1/Cyclin B1) [nM]	IC50 (OVCAR-3 cells) [nM]	IC50 ([1]; given as number) [nM]
CC(=O)N1CCC2(CCN(c3cccc4cnc(NC5CCN(S(C)(=O)=O)CC5)nc34)C2)C1 (stereo not drawn) [Example 6, 1-(7-(2-((1-(methylsulfonyl)piperidin-4-yl)amino)quinazolin-8-yl)-2,7-diazaspiro[4.4]nonan-2-yl)ethan-1-one]	< 200	> 2000	< 200	< 200	> 2000	> 2000	
CS(=O)(=O)N1CCC(Nc2ncc3cccc(N4CCC4CO)c3n2)CC1 (stereo not drawn) [Example 10, (1-(2-((1-(methylsulfonyl)piperidin-4-yl)amino)quinazolin-8-yl)azetidin-2-yl)methanol]	< 200	> 2000	< 200	< 200	200 to 500	> 2000	
CS(=O)(=O)N1CCC(Nc2ncc3cccc(N4CC(CC#N)C4)c3n2)CC1 [Example 14, 2-(1-(2-((1-(methylsulfonyl)piperidin-4-yl)amino)quinazolin-8-yl)azetidin-3-yl)acetonitrile]	< 200	> 2000	< 200	< 200	200 to 500	> 2000	
CS(=O)(=O)N1CCC(Nc2ncc3cccc(N4CCC5(CNC5)C4)c3n2)CC1 [Example 15, N-(1-(methylsulfonyl)piperidin-4-yl)-8-(2,6-diazaspiro[3.4]octan-6-yl)quinazolin-2-amine]	< 200	200 to 500	< 200	200 to 500	200 to 500	500 to 2000	
CS(=O)(=O)N1CCC(Nc2ncc3cccc(N4CC5(CC(O)C5)C4)c3n2)CC1 [Example 18, 2-(2-((1-(methylsulfonyl)piperidin-4-yl)amino)quinazolin-8-yl)-2-azaspiro[3.3]heptan-6-ol]	< 200	500 to 2000	< 200	< 200	< 200	500 to 2000	
CS(=O)(=O)N1CCC(Nc2ncc3cccc(N4CC5(CCS5(=O)=O)C4)c3n2)CC1 [Example 19, 6-(2-((1-(methylsulfonyl)piperidin-4-yl)amino)quinazolin-8-yl)-1-thia-6-azaspiro[3.3]heptane 1,1-dioxide]	< 200	500 to 2000	< 200	< 200	200 to 500	500 to 2000	
CN1CC2(CCN(c3cccc4cnc(NC5CCN(S(C)(=O)=O)CC5)nc34)C2)C1 [Example 24, 8-(2-methyl-2,6-diazaspiro[3.4]octan-6-yl)-N-(1-(methylsulfonyl)piperidin-4-yl)quinazolin-2-amine]	< 200	500 to 2000	< 200	< 200	200 to 500	500 to 2000	
CS(=O)(=O)N1CCC(Nc2ncc3cccc(N4CCC5(CCOCC5)C4)c3n2)CC1 [Example 26, N-(1-(methylsulfonyl)piperidin-4-yl)-8-(8-oxa-2-azaspiro[4.5]decan-2-yl)quinazolin-2-amine]	< 200	> 2000	< 200	< 200	500 to 2000	> 2000	
CS(=O)(=O)N1CCC(Nc2ncc3cccc(N4CCC(C#N)(C5CC5)C4)c3n2)CC1 (stereo not drawn) [Example 27, 3-cyclopropyl-1-(2-((1-(methylsulfonyl)piperidin-4-yl)amino)quinazolin-8-yl)pyrrolidine-3-carbonitrile]	< 200	> 2000	< 200	< 200	500 to 2000	> 2000	
CS(=O)(=O)N1CCC(Nc2ncc3cccc(N4CC5(CCNC5)C4)c3n2)CC1 [Example 31, N-(1-(methylsulfonyl)piperidin-4-yl)-8-(2,6-diazaspiro[3.4]octan-2-yl)quinazolin-2-amine]	< 200	500 to 2000	< 200	200 to 500	200 to 500	500 to 2000	
CC(=O)N1CCC2(CCN(c3cccc4cnc(Nc5ccc(N6CCN(C)CC6)cc5)nc34)C2)C1 (stereo not drawn) [Example 33, 1-(7-(2-((4-(4-methylpiperazin-1-yl)phenyl)amino)quinazolin-8-yl)-2,7-diazaspiro[4.4]nonan-2-yl)ethan-1-one]	< 200	> 2000		< 200	> 2000	> 2000	5170
COCCN1CC2(C1)CN(c1cccc3cnc(NC4CCN(S(C)(=O)=O)CC4)nc13)C2 [Example 36, 8-(6-(2-methoxyethyl)-2,6-diazaspiro[3.3]heptan-2-yl)-N-(1-(methylsulfonyl)piperidin-4-yl)quinazolin-2-amine]	< 200	> 2000	< 200	500 to 2000	500 to 2000	> 2000	
CS(=O)(=O)N1CCC(Nc2ncc3cccc(N4CCC5(CCC5(F)F)C4)c3n2)CC1 (stereo not drawn) [Example 37, 8-(1,1-difluoro-6-azaspiro[3.4]octan-6-yl)-N-(1-(methylsulfonyl)piperidin-4-yl)quinazolin-2-amine]	< 200	> 2000	< 200	< 200	500 to 2000	> 2000	
CC(=O)N1CCC2(CCN(c3cccc4cnc(Nc5ccc6c(c5)CCN(C)C6)nc34)C2)C1 (stereo not drawn) [Example 38, 1-(7-(2-((2-methyl-1,2,3,4-tetrahydroisoquinolin-6-yl)amino)quinazolin-8-yl)-2,7-diazaspiro[4.4]nonan-2-yl)ethan-1-one]	< 200	500 to 2000	200 to 500	200 to 500	> 2000	500 to 2000	
COCCN1CCC2(C1)CN(c1cccc3cnc(NC4CCN(S(C)(=O)=O)CC4)nc13)C2 [Example 39, 8-(6-(2-methoxyethyl)-2,6-diazaspiro[3.4]octan-2-yl)-N-(1-(methylsulfonyl)piperidin-4-yl)quinazolin-2-amine]	< 200	> 2000	< 200	500 to 2000	500 to 2000	> 2000	
CN1CCC2(C1)CN(c1cccc3cnc(NC4CCN(S(C)(=O)=O)CC4)nc13)C2 [Example 40, 8-(6-methyl-2,6-diazaspiro[3.4]octan-2-yl)-N-(1-(methylsulfonyl)piperidin-4-yl)quinazolin-2-amine]	200 to 500	> 2000	200 to 500	200 to 500	500 to 2000	> 2000	
CC(=O)N1CCC2(CCN(c3cccc4cnc(Nc5ccc(N6CC7(COC7)C6)cn5)nc34)C2)C1 (stereo not drawn) [Example 41, 1-(7-(2-((5-(2-oxa-6-azaspiro[3.3]heptan-6-yl)pyridin-2-yl)amino)quinazolin-8-yl)-2,7-diazaspiro[4.4]nonan-2-yl)ethan-1-one]	200 to 500	> 2000	> 2000	500 to 2000	> 2000	> 2000	
CN1CC2(CCN(c3cccc4cnc(Nc5ccc(N6CC7(COC7)C6)cn5)nc34)C2)C1 [Example 42, N-(5-(2-oxa-6-azaspiro[3.3]heptan-6-yl)pyridin-2-yl)-8-(2-methyl-2,6-diazaspiro[3.4]octan-6-yl)quinazolin-2-amine]	< 200	200 to 500	> 2000	200 to 500	> 2000	> 2000	
